One data set relates to E. coli (ATCC 25922). The data set can be described thus: Serum stability: antimicrobial activity after incubation in human serum. The class given is in vitro ADME, Escherichia coli. Conditions: for antimicrobial activity after incubation with human serum: 25% (v/v) pooled human serum, 37°C, activity against E. coli, OD 450 nm, triplicate; for antimicrobial activity after incubation with serum: 25% pooled human serum, 0, 60 and 120 min, Figure S6. Here is the method: Antimicrobial peptides were dissolved in 25% (v/v) pooled human serum from five individuals, and incubated at 37°C. Aliquots were extracted in triplicate after 0, 60, and 120 min incubation, and their antimicrobial activity against E. coli (ATCC 25922) was assessed using the incubated samples, as described above.

In data set [1] the test system is HEK293T. The data set can be described thus: Mammalian cell cytotoxicity, WST-1. The class given is cell-based, human. The conditions noted are these: 24 h, WST-1, triplicate. The protocol: (§1) Two mammalian cell lines, including human embryonic kidney cells (HEK293T) and human breast cancer cells (MCF7) were cultured in Dulbecco’s modified Eagle’s medium (DMEM; Hyclone^TM, Logan, UT, United States) supplemented with 10% FBS (Hyclone^TM) and 1% penicillin/streptomycin (Hyclone^TM) and incubated at 37°C and 5% CO2 up to 80% confluence. Cellular adherence to the substratum was disrupted using Accutase (Innovative Cell Technologies, San Diego, CA, United States). In total, 1 × 10^4 to 4 × 10^4 cells in each well of a 96-well plate containing 8, 16, 32, and 64 μg/mL of ModoCath peptides were incubated for 24 h at 37°C and 5% CO2. Additionally, HEK293T cells were incubated in the FBS-free medium. Triton X 100 (Sigma Aldrich) was used as a positive control for complete cell lysis, and untreated cells were used as the negative control. After incubation, the medium was removed from the wells, and 10 μL of coloring solution (Cell Proliferation Reagent WST-1^TM; Sigma Aldrich) and 100 μL of DMEM (Hyclone^TM) were added to the wells in accordance with the manufacturer’s protocol. Absorbance was measured for each well at 440 nm (peptide-treated and control) and 650 nm (background) and recorded as the OD, using a microplate reader (xMark^TM spectrophotometer; Bio-Rad). Cell viability was calculated using the following equation:
(§2) (1) CellViability(%)=100×(ODpeptide-ODbackground)/(ODnegative-ODbackground)
(§3) All experiments were performed in triplicate.
(Tetrazolium assays rely on reduction of a dye to a coloured formazan, in cell work by metabolically active cells.)

The next data set concerns MCF7. The data set can be described thus: Mammalian cell cytotoxicity, WST-1. The class given is cell-based, human. The conditions noted are these: 24 h, WST-1, triplicate. The protocol: as §1, §2, §3
Data set [2] has as its system HEK293T. The data set can be described thus: Mammalian cell cytotoxicity, WST-1, FBS-free medium. The class given is cell-based, human. Conditions: HEK293T cells, mean ± SD, triplicated. The protocol: as §1, §2, §3
For data set [3], the system named is HEK293T and MCF7 cells and human primary keratinocytes. The data set can be described thus: Cytotoxicity, summary over all tested cells. In kind it is cell-based. The conditions noted are these: at concentrations below 16 μg/mL. Here is the method: as §1, with “Triton X 100 (Sigma Aldrich) was used as a positive control for complete cell lysis, and untreated cells were used as the negative control. After incubation, the medium was removed from the wells, and 10 μL of coloring solution (Cell Proliferation Reagent WST-1^TM; Sigma Aldrich) and 100 μL of DMEM (Hyclone^TM) were added to the wells in accordance with the manufacturer’s protocol.” left out, “equation: […]” for “equation:”
Primary keratinocytes were cultured in 96-well plates at 4 × 10^4 cells per well in 0.1 mL K-SFM (Invitrogen) up to 80% confluence before being treated with various concentrations of ModoCath peptides for 24 h. Cell viability was assessed using the cell proliferation kit II (XTT; Roche, Basel, Switzerland) in accordance with the manufacturer’s protocol. […]

Where [4] appears, read: at a higher concentration than 1x MIC.

No end group written: not given here. Where only a bound is given, the exact number is not on record here.

In the case of “VKRTKRGARRGLTKVLKKIFGSIVKKAVSKGV [ΔModoCath1]”, the “antimicrobial activity after incubation with human serum” value is “unaffected” with E. coli (ATCC 25922) (60 min, at >∼2× MIC) and “decreased” in the data set on E. coli (ATCC 25922) (120 min). In addition, the “antimicrobial activity after incubation with serum” value in the data set on E. coli (ATCC 25922) (at 1x MIC) was “highly affected”; in the data set on E. coli (ATCC 25922) (setting [4]), “considerably stable”. The “Cell viability ± SD” value in the data set on HEK293T [1] (8 μg/mL, 37°C) amounted to 108.1 ± 9.9%; in the data set with HEK293T [1] (16 μg/mL), 105.5 ± 6.9%; in the data set on HEK293T [1] (32 μg/mL) it was 66.9 ± 5.0%; with HEK293T [1] (64 μg/mL), 55.7 ± 6.2%; in the data set on MCF7 (8 μg/mL) it was 91.2 ± 2.5%; in the data set on MCF7 (16 μg/mL), 89.2 ± 0.6%. Also, the “Cell viability ± SD” value in the data set with MCF7 (32 μg/mL) is recorded as 79.1 ± 1.8%; in the data set with MCF7 (64 μg/mL), 42.4 ± 2.1%. The “Cell viability ± SD (%) Serum negative” value is on record as 109.5±9.8% with HEK293T [2] (peptide 8 ㎍/㎖), 103.7±6.9% in the data set with HEK293T [2] (peptide 16 ㎍/㎖), 69.5±7.9% with HEK293T [2] (peptide 32 ㎍/㎖) and 55.9±4.4% with HEK293T [2] (peptide 64 ㎍/㎖). In data set [3], this sequence yielded a Cell survivability of more than 90%.

“VRRSKRGIKVPSFVKKVLKDVVSESIS [ΔModoCath6]”: the “Cell viability ± SD” value in the data set with HEK293T [1] (8 μg/mL, 37°C) is listed as 103.8 ± 5.0%; in the data set with HEK293T [1] (16 μg/mL) it was 95.6 ± 8.4%; in the data set with HEK293T [1] (32 μg/mL) it was 89.0 ± 13.1%; in the data set with HEK293T [1] (64 μg/mL) it was 88.8 ± 8.1%; in the data set with MCF7 (8 μg/mL) it was 89.2 ± 1.4%; in the data set with MCF7 (16 μg/mL) it was 93.2 ± 0.9%. For the same sequence, the “Cell viability ± SD” value is 92.8 ± 1.0% with MCF7 (32 μg/mL) and 95.2 ± 1.0% in the data set with MCF7 (64 μg/mL). The same sequence showed a Cell survivability in data set [3] of more than 90%.

On to “WYQLIRTFGNLIHQKYRKLLEAYRKLRD [ΔModoCath5]”, for which the “antimicrobial activity after incubation with human serum” value is given as “unaffected” in the data set on E. coli (ATCC 25922) (60 min, at >∼2× MIC) and “decreased” in the data set with E. coli (ATCC 25922) (120 min). The “antimicrobial activity after incubation with serum” value with E. coli (ATCC 25922) (at 1x MIC) is “highly affected”; in the data set with E. coli (ATCC 25922) (setting [4]), “considerably stable”. For the same sequence, the “Cell viability ± SD” value in the data set on HEK293T [1] (8 μg/mL, 37°C) is 93.7 ± 8.3%; in the data set on HEK293T [1] (16 μg/mL), 67.4 ± 3.1%; in the data set on HEK293T [1] (32 μg/mL), 47.8 ± 2.7%; in the data set on HEK293T [1] (64 μg/mL), 35.0 ± 0.8%; with MCF7 (8 μg/mL) it was 98.4 ± 4.2%; in the data set on MCF7 (16 μg/mL) it was 84.6 ± 0.6%. Besides, the entries for the “Cell viability ± SD” value in the data set with MCF7 (32 μg/mL) and in the data set with MCF7 (64 μg/mL) were 28.4 ± 0.7% and 10.3 ± 2.8%, respectively. For the same sequence, the “Cell viability ± SD (%) Serum negative” value in the data set on HEK293T [2] (peptide 8 ㎍/㎖) was determined as 98.6±6.5%; in the data set on HEK293T [2] (peptide 16 ㎍/㎖), 63.5±5.2%; in the data set with HEK293T [2] (peptide 32 ㎍/㎖), 39.3±7.6%; in the data set on HEK293T [2] (peptide 64 ㎍/㎖) it was 34.0±1.6%.

The values above are taken from publication PMC7063992, “Opossum Cathelicidins Exhibit Antimicrobial Activity Against a Broad Spectrum of Pathogens Including West Nile Virus” (Frontiers in Immunology, 2020).
